The values below come from PMC8997399, “High-Throughput Screening to Identify Inhibitors of Plasmodium falciparum Importin α” (Cells, 2022).

The target in one assay is T1, MmΔIBBIMPα (Mus musculus, UniProt P52293).
T1 construct: made in house
Description: AlphaScreen binding assay, MmΔIBBIMPα:T-ag-NLS-GFP interaction. The note with it: for inhibition at 10 µM: read-out: % Inhibition of IMPα-NLS Interaction MmΔIBBIMPα. The protocol: (§1) PfIMPα, TgIMPα, Mus musculus IMPα (MmIMPα), ΔIBBMmIMPα, and β1 (MmIMPβ) GST fusion proteins were expressed and purified essentially as previously. His-tagged TGS1-NLS-GFP, PfIMPα and TgIMPα proteins were purified using Ni^2+-affinity chromatography as described. His-tagged SV40 T-ag-NLS-GFP was purified as previously. Biotinylation of GST-tagged proteins was carried out using the Sulfo-NHS-Biotin reagent (Pierce, Rockford, IL, USA) as described previously. AlphaScreen binding assay was performed as described previously.
(§2) Plates were read for an Alphascreen signal on an Envision plate reader (PerkinElmer, Waltham, MA, USA), with signals from the negative control wells (no bait control) on each plate subtracted.

In another assay the target is T2, MmIMPα/β heterodimer (Mus musculus, UniProt P52293).
T2 construct: GST; made in house
The assay can be described thus: AlphaScreen binding assay, MmIMPα/β:T-ag-NLS-GFP interaction. The note with it: for inhibition at 10 µM: read-out: % Inhibition of IMPα-NLS Interaction MmIMPα/β. The protocol: as §1, §2
In general terms: Bead proximity is the source of the signal in Alpha formats.

The next assay deals with PfIMPα (Plasmodium falciparum, UniProt Q8IAW0). Description: biochemical. The assay is classed as binding. The note with it: for inhibition at 10 µM: read-out: % Inhibition of IMPα-NLS Interaction PfIMPα. The protocol:
as §1
Then, 10 nM biotinylated PfIMPα and 60 nM TGS1-NLS-GFP were used with library compounds, screened at 10 µM final concentration.
Briefly, 5 μL of each compound in DMSO was added to quadruplicate wells of a 384-well plate along with appropriate controls including DMSO alone and ivermectin, as previously, using a JANUS Modular Dispense Technology (MDT) robotic system (PerkinElmer, Waltham, MA, USA). This was followed by successive 7 and 5 μL additions, respectively, of PfIMPα (10 nM) and TGS1-NLS-GFP (60 nM) or PBS (“no bait” control), respectively, and 30 min incubation at room temperature. […] Then, 4 µL of the AlphaScreen donor beads (1/40 dilution of GSH. acceptor beads in PBS) was finally added to each well using a Multidrop, followed by a further incubation of 2 h at room temperature in the dark.
as §2

The next assay addresses TgIMPα (Toxoplasma gondii, UniProt A0A125YID0). The assay can be described thus: biochemical. The assay is classed as binding. The note with it: for inhibition at 10 µM: read-out: % Inhibition of IMPα-NLS Interaction TgIMPα. The protocol: as §1, §2
A further assay has as its system T. gondii tachyzoites. The note with it: cited from earlier work.
Another assay has as its system P. falciparum 3D7 strain. The assay can be described thus: P. falciparum growth inhibition assay (HRP2 sandwich ELISA). The note with it: Plasmodium falciparum, 3D7, 72 h. Type of assay: cell-based, Plasmodium falciparum. As to the method: Red blood cells (RBCs) were derived from blood from volunteers (approval from the Institute Ethics Committee, IIT Bombay, Mumbai, India) by density gradient centrifugation. Aliquots of cryopreserved P. falciparum 3D7 strain in human red blood cells (RBCs—3% hematocrit, <5% parasitemia) were thawed and cultured using RPMI (Roswell Park Memorial Institute) 1640 medium supplemented with 0.5% Albumax (Gibco^TM, Waltham, MA, USA), 50 mg/L hypoxanthine (Sigma-Aldrich, St Louis, MO, USA), 2 g/L D-glucose (Sigma-Aldrich, St Louis, MO, USA), 2 g/L sodium bicarbonate (Sigma-Aldrich, St Louis, MO, USA), and 56 mg/L of gentamicin (Abbott, Chicago, IL, USA) at 37 °C in 5% CO2 in a humidified incubator according to the standard procedures; suspension cultures were maintained at 3% hematocrit and <5% parasitemia, by adding a fresh medium daily and a regular addition of fresh human RBCs.
Before growth inhibition assays, cultures were synchronized using 5% D-sorbitol (Sigma-Aldrich, St Louis, MO, USA) predominantly to obtain the ring stage of the P. falciparum life cycle.
Growth assays in the absence and presence of inhibitors were performed using the Histidine–Rich Protein 2 (HRP2) sandwich horseradish peroxidase-linked immunosorbent assay to measure HRP2 protein levels as an indicator of growth. Briefly, 25 µL of compound was added to 96-well microculture plates (Eppendorf, Hamburg, Germany) of 0.25% (with fresh RBCs), and added at a hematocrit of 3%. The plates were then incubated for 72 h at 37 °C in a humidified incubator, sparged with 5% CO2. 72 h later, the plates were subjected to freeze–thaw to achieve hemolysis, and samples diluted 200-fold in H2O in transferring to another plate. A day prior to analysis, 96-well ELISA plates (Sigma-Aldrich, St Louis, MO, USA) were coated overnight at 4 °C with 100 µL of 1 μg/mL IgM capture antibody MPFM-55A (Immunology Consultants Laboratory, Portland, OR, USA) specific for P. falciparum HRP2. After blocking for 2 h at room temperature with 2% BSA in PBS, diluted samples were added to the wells, followed by incubation for 2 h, then the plates were washed three times with 0.05% Tween 20 in PBS. Next, 100 µL of the secondary antibody MPFG-55P (Immunology Consultants Laboratory, Portland, OR, USA) conjugated with horseradish peroxidase (0.25 μg/mL in PBS with 2% BSA) was then added to each well, and the plates incubated for 1 h at room temperature, prior to being washed three times, and 100 µL 3,3′, 5,5′ tetramethylbenzidine substrate (BD Biosciences, San Jose, CA, USA) being added. After 10 min incubation in the dark, 50 µL of 1 M H2SO4 was added and the absorbance was read at 450 nm on a Multiscan™ FC Microplate Spectrophotometer (Thermo Fisher Scientific, Waltham, MA, USA).

Assay [1] addresses His-tagged SV40 T-ag-NLS-GFP (NLS of simian virus SV40 large tumor antigen fused to GFP) (Simian Virus 40). Description: AlphaScreen or HTRF.
Assay [2] deals with His-tagged TGS1-NLS-GFP (NLS of P. falciparum trimethyl guanosine synthase 1 fused to GFP) (Plasmodium falciparum). Description: AlphaScreen or HTRF; Kd determination without inhibitors; His-tagged NLS-GFP (30 nM) and biotinylated-GST-IMPα (5 nM) as printed; pooled from three independent experiments.
Where [3] appears, read: compounds at 10 μM, PfIMPα (10 nM):TGS1-NLS-GFP (60 nM), relative to 1% DMSO control, quadruplicate.
[4] abbreviates: compounds at 10 μM, TgIMPα (5 nM):T-ag-NLS-GFP (30 nM), relative to 1% DMSO control.
Where [5] appears, read: compounds at 10 μM, ΔIBBMmIMPα (5 nM):T-ag-NLS-GFP (30 nM), relative to 1% DMSO control.
[6] abbreviates: compounds at 10 μM, MmIMPα/β (5 nM):T-ag-NLS-GFP (30 nM), relative to 1% DMSO control.

Like-named read-outs stand apart in the source and are kept apart here.

With `CNC[C@H](O)c1ccc(O)c(O)c1.Cl` (racemic) [(±)-Epinephrine HCl], the “% Inhibition of IMPα-NLS Interaction MmΔIBBIMPα” value at MmΔIBBIMPα was 35%; on MmΔIBBIMPα (listed as (±)-epinephrine HCl) it was under 55%. The “% Inhibition of IMPα-NLS Interaction MmIMPα/β” value at MmIMPα/β heterodimer is 95%; on MmIMPα/β heterodimer (listed as (±)-epinephrine HCl), at least 95%.

As to `Cl.NCC(O)c1cc(O)c(O)cc1F` (stereo not drawn) [6-Fluoronorepinephrine HCl], the “% Inhibition of IMPα-NLS Interaction PfIMPα” value on PfIMPα (setting [3]) is 77%. Further, the “% Inhibition of IMPα-NLS Interaction TgIMPα” value on TgIMPα (setting [4]) is reported as 67%. In addition, the “% Inhibition of IMPα-NLS Interaction MmΔIBBIMPα” value on MmΔIBBIMPα (setting [5]) stood at 60%. Further, the “% Inhibition of IMPα-NLS Interaction MmIMPα/β” value at MmIMPα/β heterodimer (setting [6]) is 51%.

Turning to `CNC[C@H](O)c1ccc(O)c(O)c1` [(−)-Epinephrine bitartrate], the inhibition at 10 µM is 85% on PfIMPα, 23% on TgIMPα, 34% at MmΔIBBIMPα (setting [5]) and 94% on MmIMPα/β heterodimer (setting [6]).

Regarding `CC[n+]1c(/C=C/C=C2/N(C)c3ccccc3C2(C)C)sc2ccccc21.[I-]` [AC-93253 iodide], the “% Inhibition of IMPα-NLS Interaction PfIMPα” value at PfIMPα (setting [3]) is 82%. Moreover, the “% Inhibition of IMPα-NLS Interaction TgIMPα” value at TgIMPα (setting [4]) was 72%. For the same compound, the “% Inhibition of IMPα-NLS Interaction MmΔIBBIMPα” value at MmΔIBBIMPα (setting [5]) worked out at 67%. The “% Inhibition of IMPα-NLS Interaction MmIMPα/β” value at MmIMPα/β heterodimer (setting [6]) came to 62%.

In the case of `Cc1ccc(S(=O)(=O)/C=C/C#N)cc1` [Bay 11-7082], the “inhibition of growth of T. gondii tachyzoites” value with T. gondii tachyzoites was “inhibit the growth”.

With `COc1ccc2c(c[n+](C)c3c4cc5c(cc4ccc23)OCO5)c1OC.[Cl-]` [Chelerythrine Cl], on PfIMPα (setting [3]), the “% Inhibition of IMPα-NLS Interaction PfIMPα” value is 81%. Besides, the “% Inhibition of IMPα-NLS Interaction TgIMPα” value at TgIMPα (setting [4]) worked out at 67%. At MmΔIBBIMPα (setting [5]), the “% Inhibition of IMPα-NLS Interaction MmΔIBBIMPα” value is reported as 88%. Moreover, the “% Inhibition of IMPα-NLS Interaction MmIMPα/β” value on MmIMPα/β heterodimer (setting [6]) was 94%.

As a reminder, the IC50 is the midpoint of a concentration-inhibition curve. The low end stands for higher potency, the high end for lower potency. On to `C[C@H]1[C@@H](O)O[C@@H]2O[C@@]3(C)CC[C@H]4[C@H](C)CC[C@@H]1[C@@]24OO3` [DHA, dihydroartemisinin], for which the IC50 was 1 nM with P. falciparum 3D7 strain (parasites in culture, pooled, mean ± SD (n = 3)) and 0.7 nM in the assay on P. falciparum 3D7 strain (single typical experiment (Figure 6)).

As for `O=c1ccc2ccc(O)c(O)c2o1` [Daphnetin], the inhibition at 10 µM on PfIMPα (setting [3]) came out at 81%; on TgIMPα (setting [4]), 70%; on MmΔIBBIMPα (setting [5]) it was 81%; on MmIMPα/β heterodimer (setting [6]) it was 83%.

`O=C(Nc1ccc(N2CCNCC2)nc1)c1oc(-c2ccccc2)nc1C(F)(F)F` [MMV024937]: at PfIMPα (setting [3]), the “% Inhibition of IMPα-NLS Interaction PfIMPα” value was found to be 73%. Further, on TgIMPα (setting [4]), the “% Inhibition of IMPα-NLS Interaction TgIMPα” value is 26%. The “% Inhibition of IMPα-NLS Interaction MmΔIBBIMPα” value on MmΔIBBIMPα (setting [5]) was determined as 70%. On MmIMPα/β heterodimer (setting [6]), the “% Inhibition of IMPα-NLS Interaction MmIMPα/β” value turned out to be 24%.

Turning to `CC(C)(CN)c1nc(-c2ccc(Cl)c(O)c2)c(-c2ccnc(N)n2)[nH]1` [MMV030734], at TgIMPα (setting [4]), the “% Inhibition of IMPα-NLS Interaction TgIMPα” value was 44%. For the same compound, at MmΔIBBIMPα (setting [5]), the “% Inhibition of IMPα-NLS Interaction MmΔIBBIMPα” value was found to be 43%. Moreover, the “% Inhibition of IMPα-NLS Interaction MmIMPα/β” value on MmIMPα/β heterodimer (setting [6]) was 68%.

As for `O=C(Nc1nc(-c2ccccn2)cs1)c1cncn1-c1ccccc1` [MMV676512], the “% Inhibition of IMPα-NLS Interaction TgIMPα” value at TgIMPα (setting [4]) came out at 48%. At MmΔIBBIMPα (setting [5]), the “% Inhibition of IMPα-NLS Interaction MmΔIBBIMPα” value is reported as 54%.

As usually defined, the Kd is the equilibrium constant for the complex coming apart. A higher Kd goes with lower affinity. “Mus musculus importin α deleted for the autoinhibitory IBB domain (MmΔIBBIMPα), biotinylated GST fusion protein (domain or fragment)” had a Kd in assay [1] of 2.6 nM. That is a single-digit nanomolar value.

In assay [2], “Plasmodium falciparum importin α (PfIMPα), biotinylated GST fusion protein (natural protein)” came in with an equilibrium dissociation constant (Kd) of 6.5 nM. This counts as single-digit nanomolar.

Regarding “Toxoplasma gondii importin α (TgIMPα), biotinylated GST fusion protein (natural protein)”, the Kd in assay [1] was 3.5 nM. That is a single-digit nanomolar value.
